One data set concerns E. coli ATCC25922. Briefly: Broth microdilution MIC/MBC (ISO 20776-1). The format is cell-based, Escherichia coli. In general terms: Broth dilution looks for growth in wells or tubes with falling amounts of substance.
A further data set relates to P. aeruginosa ATCC27853. Briefly: Broth microdilution MIC/MBC (ISO 20776-1). The format is cell-based, Pseudomonas aeruginosa.
Another data set deals with S. aureus ATCC29213. Briefly: Broth microdilution MIC/MBC (ISO 20776-1). Type of data set: cell-based, Staphylococcus aureus.
Another data set concerns E. faecalis ATCC29212. Briefly: Broth microdilution MIC/MBC (ISO 20776-1). Type of data set: cell-based, Enterococcus faecalis.
A further data set relates to HL-60 cells. Briefly: MTT cytotoxicity assay. The format is cell-based, human. As to conditions: read-out: IC50 ± SD. A general note: Tetrazolium assays rely on reduction of a dye to a coloured formazan, in cell work by metabolically active cells.
The subject of the next data set is MCF-7 cells. Briefly: MTT cytotoxicity assay. The format is cell-based, human. As to conditions: read-out: IC50 ± SD.
For a further data set, the system named is PC-3 cells. Briefly: MTT cytotoxicity assay. The format is cell-based, human. As to conditions: read-out: IC50 ± SD.
A further data set relates to SKOV-3 cells. Briefly: MTT cytotoxicity assay. The format is cell-based, human. As to conditions: read-out: IC50 ± SD.
The next data set deals with MCF-10A cells. Briefly: MTT cytotoxicity assay.
The nature of data set [1]: Stability of the complexes in DMSO by NMR (exchange of pyrazole ligand with DMSO). Type of data set: physicochemical. As to the method: In 3, after two days, an equilibrium between the Hdmpz and DMSO complexes stabilizes at 77% to 23% ratio (Fig. S34 ^†). Complex 3 can be recovered from the mixture by DMSO evaporation and the complex with water is even weaker. In the case of 3-phenylpyrazole in 8, the complex amount drops to 50% immediately after dissolving and after 24 h reaches ratio of 39% to 61% (Fig. S35 ^†).
The chemicals were purchased from Sigma-Aldrich and only 5-chloro-8-hydroxyquinoline from TCI. Their purity was 98 or 99% (for 3-phenylpyrazole – 97%). Anhydrous solvents with HPLC grade (≥99.9%) were applied. All chemicals were used without further purification. Elemental analysis was performed on an Elementar Vario EL III analyzer. UV-Vis spectra of methanol solutions were recorded in the 200–900 nm range with a Jasco V-750 spectrometer. Infrared absorption spectra in the 400–4000 cm^−1 range were recorded with a Thermo Scientific Nicolet iS10 FT-IR spectrometer using KBr pellets. ^1H and ^13C NMR spectra of DMSO-d6 or CDCl3 solutions were recorded at 25 °C on a Varian VNMRS-500 or Varian 400MR spectrometer operated at 499.8 and 400 MHz, respectively. The NMR spectra were referenced to the internal reference of tetramethylsilane (TMS).

In data set [2] the test system is human cervical adenocarcinoma (HeLa) cells. As to conditions: cited from earlier work.
Data set [3] deals with solid tumor cells (SKOV-3, PC-3, MCF-7). Briefly: MTT cytotoxicity assay, solid tumor cell lines taken together. Type of data set: cell-based. The conditions noted are these: Homo sapiens, read-out: IC50 against solid tumor cells. On the procedure:
For comparison, cisplatin was added to the cytotoxicity assays.
All experiments were performed in exponentially growing cultures.

Setting [4] is: E. coli ATCC25922, >99.99% reduction of growth.
The mark [5] stands for this setting: E. coli ATCC25922, MH II broth, 35 °C, 24 h.
Setting [6] is: P. aeruginosa ATCC27853, >99.99% reduction of growth.
Setting [7] is: P. aeruginosa ATCC27853, MH II broth, 35 °C, 24 h.
[8] abbreviates: S. aureus ATCC29213, >99.99% reduction of growth.
[9] abbreviates: S. aureus ATCC29213, MH II broth, 35 °C, 24 h.
Where [10] appears, read: E. faecalis ATCC29212, >99.99% reduction of growth.
The mark [11] stands for this setting: E. faecalis ATCC29212, MH II broth, 35 °C, 24 h.
[12] abbreviates: read-out: IC50 ± SD, MCF-10A (non-cancerous), 24 h, MTT, * precipitation of the complex.
Where [13] appears, read: read-out: IC50 ± SD, MCF-10A (non-cancerous), 48 h, MTT, * precipitation of the complex.

Converted amounts (≈) assume the structure as drawn. Where two headings read alike, the source gives them in different places.

This is an account of results in publication PMC11152041, “Tricarbonyl rhenium(I) complexes with 8-hydroxyquinolines: structural, chemical, antibacterial, and anticancer characteristics” (RSC Advances, 2024).

In general, MBC refers to the smallest concentration meeting the test's criterion for killing. The low end stands for more potent killing, the high end for less potent killing. The term MIC denotes the smallest concentration in the dilution series that meets the test's criterion for growth inhibition.

With `Cc1ccc2cccc([O][Re])c2n1.[C-]#[O+].[C-]#[O+].[C-]#[O+].c1ccc(-c2ccn[nH]2)cc1` [complex 8, [Re(CO)3(MeQ)HPhpz]], the MBC with E. coli ATCC25922 (setting [4]) is >512/>512 mg L^−1; in the data set with P. aeruginosa ATCC27853 (setting [6]) it was >512/>512 mg L^−1; with S. aureus ATCC29213 (setting [8]), > 512 mg/L; against E. faecalis ATCC29212 (setting [10]), > 512 mg/L. The minimal inhibitory concentration (MIC) in the data set on E. coli ATCC25922 (setting [5]) was >512/>512 mg L^−1; in the data set on P. aeruginosa ATCC27853 (setting [7]), >512/>512 mg L^−1; in the data set with S. aureus ATCC29213 (setting [9]) it was 128 mg/L; against E. faecalis ATCC29212 (setting [11]), 32 mg/L. The IC50 was found to be 9 ± 1 µM with HL-60 cells (HL-60, 24 h, MTT); 8 ± 1 µM in the data set on HL-60 cells (HL-60, 48 h, MTT); 68 ± 4 µM in the data set on MCF-7 cells (MCF-7, 24 h, MTT); 53 ± 3 µM in the data set with MCF-7 cells (MCF-7, 48 h, MTT); 39 ± 5 µM with PC-3 cells (PC-3, 24 h, MTT); 31 ± 5 µM with PC-3 cells (PC-3, 48 h, MTT). The IC50 with SKOV-3 cells (SKOV-3, 24 h, MTT) was > 100 µM; in the data set on SKOV-3 cells (SKOV-3, 48 h, MTT) it was 41 ± 7 µM; in the data set on MCF-10A cells (setting [12]), 36 ± 1 µM; in the data set on MCF-10A cells (setting [13]) it was 21 ± 4 µM. For the same molecule, in data set [1] (after 24 h), the “share of the DMSO complex” value turned out to be 61%. In addition, in data set [1] (after 24 h), the “share of the HPhpz complex” value turned out to be 39%. Besides, in data set [1] (immediately after dissolving), the complex amount came out at 50%.

Take `C1N2CN3CN1CP(C2)C3.[C-]#[O+].[C-]#[O+].[C-]#[O+].[Re][O]c1cccc2cccnc12` [[Re(CO)3(Q)(PTA)]]: in data set [2], the cytotoxicity result is given as “moderate activity”.

Turning to `Cc1cc(C)[nH]n1.[C-]#[O+].[C-]#[O+].[C-]#[O+].[Re][O]c1cccc2cccnc12` [complex 3, [Re(CO)3(Q)Hdmpz]], the MBC against E. coli ATCC25922 (setting [4]) was >512/>512 mg L^−1; in the data set with P. aeruginosa ATCC27853 (setting [6]) it was >512/>512 mg L^−1; in the data set on S. aureus ATCC29213 (setting [8]), 512/>512 mg L^−1; with E. faecalis ATCC29212 (setting [10]), 512 mg/L. For the same molecule, the MIC with E. coli ATCC25922 (setting [5]) was >512/>512 mg L^−1; with P. aeruginosa ATCC27853 (setting [7]), >512/>512 mg L^−1; with S. aureus ATCC29213 (setting [9]), 512/>512 mg L^−1; against E. faecalis ATCC29212 (setting [11]) it was 128 mg/L. Moreover, the IC50 came to 7 ± 2 µM in the data set on HL-60 cells (HL-60, 24 h, MTT); 6 ± 1 µM in the data set with HL-60 cells (HL-60, 48 h, MTT); 19 ± 2 µM in the data set on MCF-7 cells (MCF-7, 24 h, MTT); 29 ± 5 µM with MCF-7 cells (MCF-7, 48 h, MTT); 14 ± 2 µM in the data set on PC-3 cells (PC-3, 24 h, MTT); 16 ± 2 µM in the data set with PC-3 cells (PC-3, 48 h, MTT). Besides, the IC50 was 32 ± 7 µM in the data set on SKOV-3 cells (SKOV-3, 24 h, MTT); 31 ± 7 µM with SKOV-3 cells (SKOV-3, 48 h, MTT); > 100 µM in the data set on MCF-10A cells (read-out: IC50 / activity on normal cells, MCF-10A, incubation time not given); > 100 µM in the data set on MCF-10A cells (setting [12]); > 100 µM in the data set on MCF-10A cells (setting [13]). Further, the “IC50 / activity on normal cells” value with MCF-10A cells (MCF-10A, incubation time not given) is on record as “no activity”. Moreover, the “share of the DMSO complex at equilibrium” value in data set [1] (after two days) came out at 23%. Moreover, the “share of the Hdmpz complex at equilibrium with the DMSO complex” value in data set [1] (after two days) came out at 77%.

As for `Cc1ccc2cccc(O)c2n1` [MeHQ, 2-methyl-8-hydroxyquinoline, reference compound], the MBC in the data set with E. coli ATCC25922 (Escherichia coli, ATCC25922) was > 512 µg/mL; against P. aeruginosa ATCC27853 (Pseudomonas aeruginosa, ATCC27853), > 512 µg/mL; with S. aureus ATCC29213 (Staphylococcus aureus, ATCC29213), 128 mg/L (≈ 804 µM); in the data set with E. faecalis ATCC29212 (Enterococcus faecalis, ATCC29212) it was 32 mg/L (≈ 201 µM). Besides, the MIC in the data set on E. coli ATCC25922 (Escherichia coli, ATCC25922, 24 h) was 32 µg/mL (≈ 201 µM); against P. aeruginosa ATCC27853 (Pseudomonas aeruginosa, ATCC27853, 24 h), 256 µg/mL (≈ 1610 µM); in the data set on S. aureus ATCC29213 (Staphylococcus aureus, ATCC29213, 24 h) it was 32 mg/L (≈ 201 µM); with E. faecalis ATCC29212 (Enterococcus faecalis, ATCC29212, 24 h), 32 mg/L (≈ 201 µM). Further, the IC50 in the data set on HL-60 cells (Homo sapiens, HL-60, 24 h) was 27 ± 2 µM; with HL-60 cells (Homo sapiens, HL-60, 48 h) it was 18 ± 2 µM; with MCF-7 cells (Homo sapiens, MCF7, 24 h), > 100 µM; with MCF-7 cells (Homo sapiens, MCF7, 48 h) it was > 100 µM; in the data set on PC-3 cells (Homo sapiens, PC-3, 24 h) it was 62 ± 8 µM; in the data set with PC-3 cells (Homo sapiens, PC-3, 48 h), > 100 µM. Also, the IC50 in the data set with SKOV-3 cells (Homo sapiens, SK-OV-3, 24 h) is > 100 µM; in the data set with SKOV-3 cells (Homo sapiens, SK-OV-3, 48 h) it was > 100 µM; in the data set on MCF-10A cells (Homo sapiens, MCF-10A, 24 h, read-out: IC50 ± SD), > 100 µM; in the data set with MCF-10A cells (Homo sapiens, MCF-10A, 48 h, read-out: IC50 ± SD) it was > 100 µM; in data set [3] it was > 100 µM.
